“And” between values parts separate entries of the source, which are not always exact repeats. Identical values can stand only once. “Also recorded” adds a separate entry of the source. Where no end group is shown, it is not given here.
Legend:
[1] = Mineralization in aqueous solution (kinetics)
Method: Fast kinetics refers to fast mineral formation, such as immediate mineral formation, while slow mineral formation refers to mineral formation over a period of time, such as about 5 minutes to about 1 hour. In some embodiments, a first biomineralizing peptide having faster kinetics can be used in combination with a second biomineralizing peptide having slower kinetics.
The ADP5 peptide was generated using a procedure that was developed for designing protein derived peptides as described previously. Briefly, 7-AA and 12-AA long hydroxyapatite binding peptides (HABPs) were experimentally selected using the c7c- and 12-phage libraries (New England BioLabs Inc., Ipswich, Mass., USA), respectively. Next, the 180 amino acid-long human amelogenin protein (rM180) was divided into 7-AA and 12-AA long segments and each segment was compared with all of the 155 experimentally selected HABPs. The regions with high similarity scores from 7-AA and 12-AA long segments were overlapped and those coinciding high similarity regions were chosen as the putative strong binding regions. These computationally determined high similarity regions were then refined to design the ADPs by protein structure prediction, Ca^2+ ion-binding domain predictions, and meta-functional signature analyses. […]

[2] = Solid binding affinity to HAp
Excerpt: The ADP5 peptide was generated using a procedure that was developed for designing protein derived peptides as described previously. Briefly, 7-AA and 12-AA long hydroxyapatite binding peptides (HABPs) were experimentally selected using the c7c- and 12-phage libraries (New England BioLabs Inc., Ipswich, Mass., USA), respectively. Next, the 180 amino acid-long human amelogenin protein (rM180) was divided into 7-AA and 12-AA long segments and each segment was compared with all of the 155 experimentally selected HABPs. The regions with high similarity scores from 7-AA and 12-AA long segments were overlapped and those coinciding high similarity regions were chosen as the putative strong binding regions. These computationally determined high similarity regions were then refined to design the ADPs by protein structure prediction, Ca^2+ ion-binding domain predictions, and meta-functional signature analyses. Two separate assays were developed to characterize the ADPs: Solid binding affinity to HAp and mineralization in aqueous solution. […] Because of this property, ADP5 has been used for developing mineralization on human teeth. […] For this, we eliminated the six amino acids from the amino end and alanine from the carboxyl end, while keeping the charged amino acids intact that are thought to initiate mineralization. […]

[3] = 0.8 mM sADP5 10 minutes, then Ca/PO4 1 hour at 37° C.
Method: Extracted human teeth samples were collected from University of Washington clinics. The enamel tissue was cut out the using low speed saw on a perpendicular direction to the underlying dentin tubules. Next, the smear layer on the dentin was removed by polishing down to 0.1 um finish and etching for 10 seconds using 10% citric acid solution. For remineralization treatment, samples were soaked into 200 ul of 0.8 mM sADP5 peptide (SEQ ID NO:24) solution and incubated for 10 minutes at 37° C. Next, excess peptide was removed by blotting and the sample was soaked in 24 mM Tris Buffer solution supplemented with 4.8 mM Ca and 2.88 mM PO4 ions for 1 hour at 37° C. Following the remineralization treatment, samples were rinsed with deionized water, dried in air and characterized with scanning electron microscope

[4] = Side-by-side comparison of peptide-mineralized whitening versus commercial whitening products; settings: Image-J analysis of optical images; strip 30 mins, gel 10 minutes, peptide 0.8 mM 10 mins + artificial saliva 1 hr
Method: The whitening products were used according to the manufacturers' directions. For the strip, the product was applied to the pre-stained tooth for 30 mins and peeled off. Then the samples were rinsed with water for 1 min to clean the surface of the teeth from any residues from the strip. In the case of the second product, the gel was applied to the pre-stained teeth for 10 minutes and then cleaned by rinsing with water for 1 minute. In the peptide-remineralization case, the stained teeth were incubated with sADP5 (SEQ ID NO:24) peptide solution (0.8 mM) for 10 mins., followed by soaking in the artificial saliva (for 1 hr) that was supplemented with 4.8 mM Ca and 2.9 mM PO4 ionic concentrations.
The samples treated with whitening products or with the remineralization method were prepared for optical imaging for color change and also for surface characterization with scanning electron microscopy. The images of the teeth samples were recorded using a light optical microscopy technique under compact fluorescent light. The recorded images were digitized and examined with Image-J Line (NIH Software) for quantitative analysis of the color change (a, d, f and h). The cross-sectioned samples were prepared for SEM examination of the internal as well as surface structure of the teeth, and the results are shown in FIG. 15 (e, g, and i, plus their inset images).

[5] = Layer-by-layer mineralization by peptide in solution on white spot lesion; parameters: species or system human; settings: 0.8 mM sADP5
Method: On extracted human tooth, the entire tooth was painted with lacquer (nail polish) except a 3 mm by 3 mm window on enamel. This window was subjected to etching then remineralization. The following steps were then carried out:
• 1. Etch enamel surface aqueous solution of 2.2 mM K2HPO4, 2.2 mM CaCl2, and 50 mM acetic acid at pH 4.5 for 2 weeks, changing solution every other day, to create white spot lesion (WSL) […]. • 2. Soak in 100 ml of 0.8 mM sADP5 solution at 37 C for 10 minutes then blot dry with tissue paper. • 3. Soak in 600 ml of 4.8 mM CaCl2+2.8 mM K2HPO4 in pH 7.4 Tris buffer at 37 C for 1 hour. • 4. Drip rinse with DI water for 20 seconds then blot dry with Kimwipe™ sheet. • 5. Repeat steps 3-4 to add more mineralized layers. Results & Discussions—

Substance: (HPP(S/T)HTLQPHHH(L/I)PVVPAQQPV(A/I)PQQPMMPVPG(H/Q)HSMTP(T/I)QH)1-10 [ADP7]
- mineralization kinetics [1]: slow kinetic profile

Substance: (PGYIN(L/F)SYE(K/N)SHSQAIN(T/V)DRTA)1-10 [ADP5]
- binding to HAp [2]: one of the weakest binding peptides
- mineralization kinetics [1]: fastest mineralization kinetics; also recorded: fast kinetic profile

Substance: (SYEKSHSQAINTDRT)1-10 (also: repeated 1-10 times) [sADP5]
- depth of mineral penetration into tubules [3]: 2-3 um
- occlusion of exposed dentin tubules [3]: successfully occluded
- increase of tooth shade above tea-stained baseline [4]: 4.64% and 4.6%
- Ca/P of new mineral layers ([5]; after 4 repetitions): 1.43+0.15
- number of distinctive mineral layers formed ([5]; after 4 repetitions of the mineralization steps): 4
